In patent US10167262B2, “Herbicidal substituted 3-arylpyrazoles” (FMC CORPORATION, priority 2014, dated 2019):

tested on: waterhemp_RES2, (ALS & HPPD resistant common waterhemp, Amaranthus rudis); assay: Test E postemergence greenhouse test, plant response rating 0-100; type: in vivo; conditions: 31 g ai/ha, scale 0 to 100
Method: At the same time, plants from these crop and weed species and also waterhemp_RES1, (ALS & Triazine resistant common waterhemp, Amaranthus rudis), and waterhemp_RES2, (ALS & HPPD resistant common waterhemp, Amaranthus rudis) were planted in pots containing Redi-Earth® planting medium (Scotts Company, 14111 Scottslawn Road, Marysville, Ohio 43041) comprising spaghnum peat moss, vermiculite, wetting agent and starter nutrients were treated with postemergence applications of test chemicals formulated in the same manner. Plants ranged in height from 2 to 18 cm for postemergence treatments (1- to 4-leaf stage).
Treated plants and controls were maintained in a greenhouse for 14 to 21 days, after which time all species were compared to controls and visually evaluated. Plant response ratings, summarized in Table E, are based on a scale of 0 to 100 where 0 is no effect and 100 is complete control. A dash (-) response means no test result.

Q: `CCCn1cc(C(=O)c2ccccc2)c(-c2cc(Cl)cc(Cl)c2)n1` [Compound 61, [3-(3,5-dichlorophenyl)-1-propyl-1H-pyrazol-4-yl]phenylmethanone] was tested. Which “Plant response rating, Waterhemp_RES2” value did it give?
A: The value was 20.

same assay, conditions: 125 g ai/ha, scale 0 to 100

Q: With `CCCn1cc(C(=O)c2ccccc2)c(-c2cc(Cl)cc(Cl)c2)n1` [Compound 61, [3-(3,5-dichlorophenyl)-1-propyl-1H-pyrazol-4-yl]phenylmethanone] as the compound, how does the “Plant response rating, Waterhemp_RES2” value read?
A: The value was 40.

same assay, conditions: 500 g ai/ha, scale 0 to 100

Q: For `CCCn1cc(C(=O)c2ccccc2)c(-c2cc(Cl)cc(Cl)c2)n1` [Compound 61, [3-(3,5-dichlorophenyl)-1-propyl-1H-pyrazol-4-yl]phenylmethanone], which “Plant response rating, Waterhemp_RES2” value is on record?
A: Its value is 95.

tested on: cocklebur (common cocklebur, Xanthium strumarium); assay: Test C postemergence greenhouse test, plant response rating 0-100; type: in vivo; conditions: 31 g ai/ha
Summary of the method: (§1)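 Scores run from 0, meaning no effect, to 100, meaning complete control, and come from visual comparison with untreated controls. Treatment was a postemergence application to plants 2–18 cm tall. Assessment followed 13 to 15 days of greenhouse growth.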

Q: Which “Plant response rating (0 to 100), Cocklebur” value does the source give for `CCCn1cc(C(=O)c2ccccc2)c(-c2cc(Cl)cc(Cl)c2)n1` [Compound 61, [3-(3,5-dichlorophenyl)-1-propyl-1H-pyrazol-4-yl]phenylmethanone] here?
A: Its value is 10.

same assay, conditions: 62 g ai/ha

Q: With `CCCn1cc(C(=O)c2ccccc2)c(-c2cc(Cl)cc(Cl)c2)n1` [Compound 61, [3-(3,5-dichlorophenyl)-1-propyl-1H-pyrazol-4-yl]phenylmethanone] as the compound, how does the “Plant response rating (0 to 100), Cocklebur” value read?
A: Its value is 10.

same assay, conditions: 125 g ai/ha

Q: For `CCCn1cc(C(=O)c2ccccc2)c(-c2cc(Cl)cc(Cl)c2)n1` [Compound 61, [3-(3,5-dichlorophenyl)-1-propyl-1H-pyrazol-4-yl]phenylmethanone], which “Plant response rating (0 to 100), Cocklebur” value is on record?
A: Its value is 20.

same assay, conditions: 250 g ai/ha, scale 0 to 100

Q: For `CCCn1cc(C(=O)c2ccccc2)c(-c2cc(Cl)cc(Cl)c2)n1` [Compound 61, [3-(3,5-dichlorophenyl)-1-propyl-1H-pyrazol-4-yl]phenylmethanone], which “Plant response rating, Cocklebur” value is on record?
A: The value was 35.

tested on: woolly cupgrass (Eriochloa villosa); assay: as above; type: in vivo; conditions: 31 g ai/ha
Summary of the method: as §1

Q: `CCCn1cc(C(=O)c2ccccc2)c(-c2cc(Cl)cc(Cl)c2)n1` [Compound 61, [3-(3,5-dichlorophenyl)-1-propyl-1H-pyrazol-4-yl]phenylmethanone] was tested. Which “Plant response rating (0 to 100), Cupgrass, Woolly” value did it give?
A: The value was 5.

same assay, conditions: 62 g ai/ha

Q: For `CCCn1cc(C(=O)c2ccccc2)c(-c2cc(Cl)cc(Cl)c2)n1` [Compound 61, [3-(3,5-dichlorophenyl)-1-propyl-1H-pyrazol-4-yl]phenylmethanone], which “Plant response rating (0 to 100), Cupgrass, Woolly” value is on record?
A: Its value is 10.

same assay, conditions: 125 g ai/ha

Q: Which “Plant response rating (0 to 100), Cupgrass, Woolly” value does the source give for `CCCn1cc(C(=O)c2ccccc2)c(-c2cc(Cl)cc(Cl)c2)n1` [Compound 61, [3-(3,5-dichlorophenyl)-1-propyl-1H-pyrazol-4-yl]phenylmethanone] here?
A: The value was 10.

same assay, conditions: 250 g ai/ha, scale 0 to 100

Q: Which “Plant response rating, Cupgrass, Woolly” value does the source give for `CCCn1cc(C(=O)c2ccccc2)c(-c2cc(Cl)cc(Cl)c2)n1` [Compound 61, [3-(3,5-dichlorophenyl)-1-propyl-1H-pyrazol-4-yl]phenylmethanone] here?
A: Its value is 15.

tested on: windgrass (Apera spica-venti); assay: as above; type: in vivo; conditions: 62 g ai/ha
Summary of the method: as §1

Q: Which “Plant response rating (0 to 100), Windgrass” value does the source give for `CCCn1cc(C(=O)c2ccccc2)c(-c2cc(Cl)cc(Cl)c2)n1` [Compound 61, [3-(3,5-dichlorophenyl)-1-propyl-1H-pyrazol-4-yl]phenylmethanone] here?
A: The value was 0.

same assay, conditions: 125 g ai/ha

Q: `CCCn1cc(C(=O)c2ccccc2)c(-c2cc(Cl)cc(Cl)c2)n1` [Compound 61, [3-(3,5-dichlorophenyl)-1-propyl-1H-pyrazol-4-yl]phenylmethanone] was tested. Which “Plant response rating (0 to 100), Windgrass” value did it give?
A: The value was 0.

same assay, conditions: 250 g ai/ha, scale 0 to 100

Q: With `CCCn1cc(C(=O)c2ccccc2)c(-c2cc(Cl)cc(Cl)c2)n1` [Compound 61, [3-(3,5-dichlorophenyl)-1-propyl-1H-pyrazol-4-yl]phenylmethanone] as the compound, how does the “Plant response rating, Windgrass” value read?
A: Its value is 0.

tested on: downy bromegrass (Bromus tectorum); assay: as above; type: in vivo; conditions: 31 g ai/ha
Summary of the method: as §1

Q: With `CCCn1cc(C(=O)c2ccccc2)c(-c2cc(Cl)cc(Cl)c2)n1` [Compound 61, [3-(3,5-dichlorophenyl)-1-propyl-1H-pyrazol-4-yl]phenylmethanone] as the compound, how does the “Plant response rating (0 to 100), Bromegrass, Downy” value read?
A: The value was 0.

same assay, conditions: 62 g ai/ha

Q: How did the “Plant response rating (0 to 100), Bromegrass, Downy” value turn out when `CCCn1cc(C(=O)c2ccccc2)c(-c2cc(Cl)cc(Cl)c2)n1` [Compound 61, [3-(3,5-dichlorophenyl)-1-propyl-1H-pyrazol-4-yl]phenylmethanone] was run?
A: The value was 0.

same assay, conditions: 125 g ai/ha

Q: How did the “Plant response rating (0 to 100), Bromegrass, Downy” value turn out when `CCCn1cc(C(=O)c2ccccc2)c(-c2cc(Cl)cc(Cl)c2)n1` [Compound 61, [3-(3,5-dichlorophenyl)-1-propyl-1H-pyrazol-4-yl]phenylmethanone] was run?
A: Its value is 0.

same assay, conditions: 250 g ai/ha, scale 0 to 100

Q: For `CCCn1cc(C(=O)c2ccccc2)c(-c2cc(Cl)cc(Cl)c2)n1` [Compound 61, [3-(3,5-dichlorophenyl)-1-propyl-1H-pyrazol-4-yl]phenylmethanone], which “Plant response rating, Bromegrass, Downy” value is on record?
A: The value was 0.

tested on: green foxtail (Setaria viridis); assay: as above; type: in vivo; conditions: 31 g ai/ha
Summary of the method: as §1

Q: Which “Plant response rating (0 to 100), Foxtail, Green” value does the source give for `CCCn1cc(C(=O)c2ccccc2)c(-c2cc(Cl)cc(Cl)c2)n1` [Compound 61, [3-(3,5-dichlorophenyl)-1-propyl-1H-pyrazol-4-yl]phenylmethanone] here?
A: Its value is 0.

same assay, conditions: 62 g ai/ha

Q: Which “Plant response rating (0 to 100), Foxtail, Green” value does the source give for `CCCn1cc(C(=O)c2ccccc2)c(-c2cc(Cl)cc(Cl)c2)n1` [Compound 61, [3-(3,5-dichlorophenyl)-1-propyl-1H-pyrazol-4-yl]phenylmethanone] here?
A: Its value is 0.

same assay, conditions: 125 g ai/ha

Q: For `CCCn1cc(C(=O)c2ccccc2)c(-c2cc(Cl)cc(Cl)c2)n1` [Compound 61, [3-(3,5-dichlorophenyl)-1-propyl-1H-pyrazol-4-yl]phenylmethanone], which “Plant response rating (0 to 100), Foxtail, Green” value is on record?
A: The value was 0.

same assay, conditions: 250 g ai/ha, scale 0 to 100

Q: Which “Plant response rating, Foxtail, Green” value does the source give for `CCCn1cc(C(=O)c2ccccc2)c(-c2cc(Cl)cc(Cl)c2)n1` [Compound 61, [3-(3,5-dichlorophenyl)-1-propyl-1H-pyrazol-4-yl]phenylmethanone] here?
A: The value was 0.

tested on: canarygrass (Phalaris minor); assay: as above; type: in vivo; conditions: 31 g ai/ha
Summary of the method: as §1

Q: How did the “Plant response rating (0 to 100), Canarygrass” value turn out when `CCCn1cc(C(=O)c2ccccc2)c(-c2cc(Cl)cc(Cl)c2)n1` [Compound 61, [3-(3,5-dichlorophenyl)-1-propyl-1H-pyrazol-4-yl]phenylmethanone] was run?
A: Its value is 0.

same assay, conditions: 62 g ai/ha

Q: With `CCCn1cc(C(=O)c2ccccc2)c(-c2cc(Cl)cc(Cl)c2)n1` [Compound 61, [3-(3,5-dichlorophenyl)-1-propyl-1H-pyrazol-4-yl]phenylmethanone] as the compound, how does the “Plant response rating (0 to 100), Canarygrass” value read?
A: The value was 0.

same assay, conditions: 125 g ai/ha

Q: Which “Plant response rating (0 to 100), Canarygrass” value does the source give for `CCCn1cc(C(=O)c2ccccc2)c(-c2cc(Cl)cc(Cl)c2)n1` [Compound 61, [3-(3,5-dichlorophenyl)-1-propyl-1H-pyrazol-4-yl]phenylmethanone] here?
A: Its value is 0.

same assay, conditions: 250 g ai/ha, scale 0 to 100

Q: `CCCn1cc(C(=O)c2ccccc2)c(-c2cc(Cl)cc(Cl)c2)n1` [Compound 61, [3-(3,5-dichlorophenyl)-1-propyl-1H-pyrazol-4-yl]phenylmethanone] was tested. Which “Plant response rating, Canarygrass” value did it give?
A: The value was 0.

tested on: deadnettle (henbit deadnettle, Lamium amplexicaule); assay: as above; type: in vivo; conditions: 31 g ai/ha
Summary of the method: as §1

Q: With `CCCn1cc(C(=O)c2ccccc2)c(-c2cc(Cl)cc(Cl)c2)n1` [Compound 61, [3-(3,5-dichlorophenyl)-1-propyl-1H-pyrazol-4-yl]phenylmethanone] as the compound, how does the “Plant response rating (0 to 100), Deadnettle” value read?
A: Its value is 0.

same assay, conditions: 62 g ai/ha

Q: With `CCCn1cc(C(=O)c2ccccc2)c(-c2cc(Cl)cc(Cl)c2)n1` [Compound 61, [3-(3,5-dichlorophenyl)-1-propyl-1H-pyrazol-4-yl]phenylmethanone] as the compound, how does the “Plant response rating (0 to 100), Deadnettle” value read?
A: The value was 0.

same assay, conditions: 125 g ai/ha

Q: How did the “Plant response rating (0 to 100), Deadnettle” value turn out when `CCCn1cc(C(=O)c2ccccc2)c(-c2cc(Cl)cc(Cl)c2)n1` [Compound 61, [3-(3,5-dichlorophenyl)-1-propyl-1H-pyrazol-4-yl]phenylmethanone] was run?
A: Its value is 0.

same assay, conditions: 250 g ai/ha, scale 0 to 100

Q: `CCCn1cc(C(=O)c2ccccc2)c(-c2cc(Cl)cc(Cl)c2)n1` [Compound 61, [3-(3,5-dichlorophenyl)-1-propyl-1H-pyrazol-4-yl]phenylmethanone] was tested. Which “Plant response rating, Deadnettle” value did it give?
A: The value was 0.

tested on: winter barley (Hordeum vulgare); assay: as above; type: in vivo; conditions: 31 g ai/ha
Summary of the method: as §1

Q: `CCCn1cc(C(=O)c2ccccc2)c(-c2cc(Cl)cc(Cl)c2)n1` [Compound 61, [3-(3,5-dichlorophenyl)-1-propyl-1H-pyrazol-4-yl]phenylmethanone] was tested. Which “Plant response rating (0 to 100), Barley” value did it give?
A: Its value is 0.

same assay, conditions: 62 g ai/ha

Q: Which “Plant response rating (0 to 100), Barley” value does the source give for `CCCn1cc(C(=O)c2ccccc2)c(-c2cc(Cl)cc(Cl)c2)n1` [Compound 61, [3-(3,5-dichlorophenyl)-1-propyl-1H-pyrazol-4-yl]phenylmethanone] here?
A: Its value is 0.

same assay, conditions: 125 g ai/ha

Q: Which “Plant response rating (0 to 100), Barley” value does the source give for `CCCn1cc(C(=O)c2ccccc2)c(-c2cc(Cl)cc(Cl)c2)n1` [Compound 61, [3-(3,5-dichlorophenyl)-1-propyl-1H-pyrazol-4-yl]phenylmethanone] here?
A: Its value is 0.

same assay, conditions: 250 g ai/ha, scale 0 to 100

Q: Which “Plant response rating, Barley” value does the source give for `CCCn1cc(C(=O)c2ccccc2)c(-c2cc(Cl)cc(Cl)c2)n1` [Compound 61, [3-(3,5-dichlorophenyl)-1-propyl-1H-pyrazol-4-yl]phenylmethanone] here?
A: Its value is 0.

tested on: surinam grass (Brachiaria decumbens); assay: as above; type: in vivo; conditions: 62 g ai/ha
Summary of the method: as §1

Q: How did the “Plant response rating (0 to 100), Surinam Grass” value turn out when `CCCn1cc(C(=O)c2ccccc2)c(-c2cc(Cl)cc(Cl)c2)n1` [Compound 61, [3-(3,5-dichlorophenyl)-1-propyl-1H-pyrazol-4-yl]phenylmethanone] was run?
A: Its value is 0.

same assay, conditions: 125 g ai/ha

Q: How did the “Plant response rating (0 to 100), Surinam Grass” value turn out when `CCCn1cc(C(=O)c2ccccc2)c(-c2cc(Cl)cc(Cl)c2)n1` [Compound 61, [3-(3,5-dichlorophenyl)-1-propyl-1H-pyrazol-4-yl]phenylmethanone] was run?
A: The value was 0.

same assay, conditions: 250 g ai/ha, scale 0 to 100

Q: With `CCCn1cc(C(=O)c2ccccc2)c(-c2cc(Cl)cc(Cl)c2)n1` [Compound 61, [3-(3,5-dichlorophenyl)-1-propyl-1H-pyrazol-4-yl]phenylmethanone] as the compound, how does the “Plant response rating, Surinam Grass” value read?
A: The value was 0.
